The numbers were not newly measured in patent US20140010884A1, “DERMATOLOGICAL COMPOSITIONS COMPRISING RETINOIDS, DISPERSED BENZOYL PEROXIDE AND CARRAGEENANS” (GALDERMA RESEARCH & DEVELOPMENT, priority 2008, published 2014), which cites them from elsewhere.

Where two headings read alike, the source gives them in different places.

For data set [1] the following is noted: for decomposition time: 40° C.
The conditions of data set [2]: in PEG 400 and ethanol.

For `COc1ccc(-c2ccc3cc(C(=O)O)ccc3c2)cc1C12CC3CC(CC(C3)C1)C2` [adapalene, 6-[3-(1-adamantyl)-4-methoxyphenyl]-2-naphthoic acid], where the note is “during 24 hours”, the “decomposition of retinoid in presence of benzoyl peroxide” value was “no decomposition”.

Turning to `O=C(OOC(=O)c1ccccc1)c1ccccc1` [benzoyl peroxide], the figures for the decomposition time in data set [1] (in PEG 400 (0.5 mg/g)), in data set [1] (in ethanol) and in data set [1] (in propylene glycol) were 1.4 days, 29 days and 53 days, respectively. In data set [1] (in water and propylene glycol, after storing for 90 days), the “decomposition in suspension (dispersed form)” value was “not decomposed”. The solubility result in data set [2] is listed as “particularly soluble”.

As to `CC1=C(/C=C/C(C)=C/C=C/C(C)=C/C(=O)O)C(C)(C)CCC1` [tretinoin], the “retinoid decomposing in presence of benzoyl peroxide” value is, setting by setting: (in 2 hours) 50%; (in 24 hours) 95%.
